In publication PMC10712727, “Safety, Tolerability, and Pharmacokinetics of Senaparib, a Novel PARP1/2 Inhibitor, in Chinese Patients With Advanced Solid Tumors: A Phase I Trial” (The Oncologist, 2023):

How the values were obtained:
anticancer animal models = test system: anticancer animal models; design: method as in doi:10.1158/1538-7445.am2022-1399; details: in vivo studies (anticancer animal models); cited from earlier work
[1] = Plasma pharmacokinetics after single-dose administration (HPLC-MS/MS); type: in vivo, human
Method: Dose escalation was conducted using a modified Fibonacci 3 + 3 method (Supplementary Fig. […] At a given dose level, each patient received a single dose of senaparib followed by a 7-day washout period. They then entered a continuous dosing period to confirm the safety and PK profile, in which they received senaparib QD from day 1 to day 21 of each 3-week cycle. Progression to the next higher dose required approval from the Data Safety Monitoring Committee (DSMC) upon review of the safety and PK data of the previous dose. A 50-mg twice-daily (BID) dosing group was added (planned enrollment, n = 6 patients) based on a DSMC review of the safety, PK, and efficacy analysis of the completed QD dose groups in the phase I clinical trial of senaparib dose escalation in Australia (NCT03507543), which commenced prior to the start of this trial. Safety was assessed by recording the incidence of dose-limiting toxicities (DLTs), and the incidence, nature, severity (graded per National Cancer Institute Common Terminology Criteria for Adverse Events version 4.03 [NCI CTCAE v4.03][18]), and relatedness of treatment-emergent adverse events (TEAEs). DLTs were predefined toxicities (Supplementary Table S2) recorded over the 7 days following the single-dose administration of senaparib and during the first treatment cycle (day 1-day 21) for each dose group in the dose-escalation period only. […] Senaparib PK parameters were derived from blood samples collected from patients after the single administration, and at regular intervals during the first cycle of the dose-escalation and dose-expansion periods. Plasma concentrations of senaparib were determined using high-performance liquid chromatography-tandem mass spectrometry. […] There was no formal sample size calculation based on statistical hypothesis testing for this study; the planned enrolment was approximately 30-60 patients across the dose-escalation and dose-expansion cohorts. The actual number in the dose-escalation cohort was adjusted based on the number of dose cohorts required for the modified Fibonacci dose-escalation design and the determined MTD. Definitions for all analysis populations (safety, DLT, PK, and efficacy [intent-to-treat, ITT]) are provided in Supplementary Table S2. No statistical tests were performed; patient demographic and baseline characteristics, safety/tolerability, PK parameters, and efficacy were evaluated descriptively. ORR and DCR and their 95% CIs were calculated for each group using the exact probability method. Kaplan-Meier statistics were used to estimate DOR and PFS, and their 95% CIs for each dose group separately. Dose linearity was explored based on the single-dose data of area under the time-concentration curve (AUC) and maximum plasma concentration (Cmax) using the power model (Y = α × dose β) for the dose range 2-80 mg on a log-transformed scale. The following criterion was used to determine whether dose proportionality was met: if the (2-sided) 90% CI for β was wholly contained within the interval (1 + log(0.5)/log(r), 1 + log(2)/log(r)), then dose proportionality was supported. Here, r was defined as the ratio of the highest to lowest dose. All data analyses were carried out using SAS EG7.1 or higher or (for PK parameters) WinNonlin 7.0 or higher.

## O=C(c1cc(Cn2c(=O)[nH]c(=O)c3c(F)cccc32)ccc1F)N1CCN(c2ncccn2)CC1 [Senaparib]
Anticancer animal models
  Potency relative to the PARP inhibitor olaparib: 20 fold
[1]; human, in vivo
  Elimination half-life, range: 5.1 to 24.3 h
  Mean apparent clearance, range across dose groups: 1.0 to 6.3 L/h
  Mean volume of distribution, range across dose groups: 15.5 to 88.7 L
  Median time to Cmax, range across dose groups: 0.5 to 6.0 h
[1]; human, in vivo, 2 mg
  AUC0-inf, mean±SD: 1754.1 ng·h/mL
  AUC0-t, mean±SD: 1462.4 ng·h/mL
  CL/F, mean±SD: 1.1 L/h
  Cmax, mean±SD: 177.0 ng/mL
  Tmax, median (range): 1.0 (1.0-1.0) h
  Vd/F, mean±SD: 21.3 L
  t½, median (range): 13.0 (13.0-13.0) h
  λz, mean±SD: 5.3 h⁻¹
[1]; human, in vivo, 5 mg
  AUC0-inf, mean±SD: 4107.2 ± 2303.2 ng·h/mL
  AUC0-t, mean±SD: 3912.7 ± 2180.7 ng·h/mL
  CL/F, mean±SD: 1.5 ± 0.7 L/h
  Cmax, mean±SD: 378.7 ± 76.1 ng/mL
  Tmax, median (range): 1.9 (1.9-2.0) h
  Vd/F, mean±SD: 15.5 ± 3.5 L
  t½, median (range): 7.7 (5.8-10.8) h
  λz, mean±SD: 5.2 ± 4.6 h⁻¹
[1]; human, in vivo, 10 mg
  AUC0-inf, mean±SD: 9954.7 ± 1274.9 ng·h/mL
  AUC0-t, mean±SD: 9053.7 ± 887.5 ng·h/mL
  CL/F, mean±SD: 1.0 ± 0.1 L/h
  Cmax, mean±SD: 606.7 ± 93.5 ng/mL
  Tmax, median (range): 4.0 (2.0-4.0) h
  Vd/F, mean±SD: 19.6 ± 0.8 L
  t½, median (range): 14.4 (11.0-15.2) h
  λz, mean±SD: 5.2 ± 0.9 h⁻¹
[1]; human, in vivo, 20 mg
  AUC0-inf, mean±SD: 18 955.2±3835.6 h*ng/mL
  AUC0-t, mean±SD: 16 945.0±11 287.2 h*ng/mL
  CL/F, mean±SD: 1.7 ± 1.4 L/h
  Cmax, mean±SD: 1453.3 ± 408.1 ng/mL
  Tmax, median (range): 1.9 (1.8-1.9) h
  Vd/F, mean±SD: 19.1 ± 4.5 L
  t½, median (range): 11.2 (5.1-17.1) h
  λz, mean±SD: 3.5 ± 3.1 h⁻¹
[1]; human, in vivo, 40 mg
  AUC0-inf, mean±SD: 16 904.8±4182.4 h*ng/mL
  AUC0-t, mean±SD: 16 428.2±3762.6 h*ng/mL
  CL/F, mean±SD: 2.5 ± 0.7 L/h
  Cmax, mean±SD: 1680.0 ± 148.0 ng/mL
  Tmax, median (range): 1.8 (1.0-1.8) h
  Vd/F, mean±SD: 30.9 ± 2.6 L
  t½, median (range): 9.3 (7.3-10.2) h
  λz, mean±SD: 7.9 ± 1.4 h⁻¹
[1]; human, in vivo, 50 mg
  AUC0-inf, mean±SD: 35 588.9±27 788.9 h*ng/mL
  AUC0-t, mean±SD: 12 067.8±5895.4 h*ng/mL
  CL/F, mean±SD: 2.4 ± 2.0 L/h
  Cmax, mean±SD: 1560.0 ± 564.3 ng/mL
  Tmax, median (range): 0.7 (0.5-3.5) h
  Vd/F, mean±SD: 36.4 ± 8.6 L
  t½, median (range): 16.5 (5.7-24.3) h
  λz, mean±SD: 3.3 ± 2.9 h⁻¹
[1]; human, in vivo, 60 mg
  AUC0-inf, mean±SD: 25 575.8±10 554.7 h*ng/mL
  AUC0-t, mean±SD: 24 929.7±9991.9 h*ng/mL
  CL/F, mean±SD: 2.6 ± 0.9 L/h
  Cmax, mean±SD: 2476.7 ± 342.7 ng/mL
  Tmax, median (range): 2.0 (2.0-3.6) h
  Vd/F, mean±SD: 32.0 ± 8.8 L
  t½, median (range): 8.5 (7.9-9.9) h
  λz, mean±SD: 8.0 ± 0.9 h⁻¹
[1]; human, in vivo, 80 mg
  AUC0-inf, mean±SD: 76 255.9±33 943.0 h*ng/mL
  AUC0-t, mean±SD: 62 385.0±22 693.1 h*ng/mL
  CL/F, mean±SD: 1.2 ± 0.6 L/h
  Cmax, mean±SD: 3860.0 ± 1475.0 ng/mL
  Tmax, median (range): 2.0 (2.0-2.0) h
  Vd/F, mean±SD: 30.6 ± 14.5 L
  t½, median (range): 17.0 (13.3-23.7) h
  λz, mean±SD: 4.1 ± 1.1 h⁻¹
[1]; human, in vivo, 100 mg
  AUC0-inf, mean±SD: 40 487.6±20 226.7 h*ng/mL
  AUC0-t, mean±SD: 38 505.2±18 191.9 h*ng/mL
  CL/F, mean±SD: 3.1 ± 1.6 L/h
  Cmax, mean±SD: 3425.0 ± 1516.1 ng/mL
  Tmax, median (range): 2.0 (1.0-4.0) h
  Vd/F, mean±SD: 39.6 ± 1.1 L
  t½, median (range): 10.4 (6.6-12.9) h
  λz, mean±SD: 5.7 ± 3.3 h⁻¹
[1]; human, in vivo, 120 mg
  AUC0-inf, mean±SD: 68 650.9±89 085.5 h*ng/mL
  AUC0-t, mean±SD: 55 962.4±66 684.5 h*ng/mL
  CL/F, mean±SD: 6.3 ± 5.8 L/h
  Cmax, mean±SD: 3348.3 ± 2828.8 ng/mL
  Tmax, median (range): 1.9 (1.8-6.0) h
  Vd/F, mean±SD: 88.7 ± 86.2 L
  t½, median (range): 11.3 (6.3-23.8) h
  λz, mean±SD: 3.8 ± 2.9 h⁻¹
[1]; single dose, 80-120 mg
  Senaparib exposure (Cmax and AUC) versus dose: appeared to plateau
